Target: recombinant IL4I1 (Homo sapiens (Human), UniProt Q96RQ9)
Experiment: IL4I1 Enzymatic Assay (Amplex Red/HRP coupled H2O2 detection)
Assay type: biochemical
Details: 1 nM IL4I1, 1 mM each Phe/Tyr/Trp, four-hour pre-incubation, 120 minutes reaction, top compound concentration of 10000 nM
Procedure: Interleukin 4 inducible protein 1 (IL4I1) is an L-amino oxidase that catalyzes the oxidation of aromatic residues (Phe, Trp and Tyr): L-amino acid+H2O+O2→2-oxo acid+NH3+H2O2. Equal molar of H2O2 and the corresponding alpha-ketoacid are produced when IL4I1 and substrate are added. In this assay, the hydrogen peroxide generated by IL4I1 are then detected through a coupled reaction with Amplex Red (10-acetyl-3,7-dihydroxyphenoxazine) and […] (HRP) to produce Resorufin product that could be detected in the form of fluorescence signals. The assessment of the inhibitory effect of small molecules (EC50) on IL4I1 is measured by the effectiveness of the compounds to inhibit the production of H2O2.
Using this assay, the potency (EC50) of each compound was determined from a ten-point (1:3 serial dilution; top compound concentration of 10000 nM) titration curve using the following outlined procedure. To each well of a black flat-bottom Greiner (Cat #781076) 384 well-plate, 25 nL of compound (0.1% DMSO in final assay volume of 25 μL) was dispensed, followed by the addition of 12.5 μL of 1× assay buffer (50 mM Hepes 7.0 and 0.005% Tween20 (Sigma, Cat #P8341; low peroxide grade)) containing 2 nM of recombinant IL4I1 (R&D Systems, Cat #5684-AO-020). Plates were placed in an ambient temperature humidified chamber for a four-hour pre-incubation with compound. Subsequently, each reaction was initiated by the addition of 12.5 μL 1× assay buffer containing 2 mM of each aromatic amino acids (Phe/Tyr/Trp), 0.1 mM Amplex Red and 2 U/mL of HRP. The final reaction in each well of 25 μL consists of 1 nM of IL4I1, 1 mM of each residues (Phe, Tyr and Trp), 0.05 mM Amplex Red and 1 U/mL of HRP. It should be noted that the concentrations of Amplex Red and HRP used here are in excess such that the conversion of H2O2 to Resorufin product occurs instantaneously and non-rate limiting. Reactions were allowed to proceed for 120 minutes followed by fluorescence readout on a Spectramax with the following set parameters: 544 nm excitation/590 nm emission, 570 nm cutoff (EnVision is an alternative reader). Dose-response curves were generated by plotting percent effect (% product conversion; Y-axis) vs. Log10 compound concentrations (X-axis). EC50 values were calculated using a non-linear regression, four-parameters sigmoidal dose-response model.

Chain of recombinant IL4I1 (Q96RQ9 22-567): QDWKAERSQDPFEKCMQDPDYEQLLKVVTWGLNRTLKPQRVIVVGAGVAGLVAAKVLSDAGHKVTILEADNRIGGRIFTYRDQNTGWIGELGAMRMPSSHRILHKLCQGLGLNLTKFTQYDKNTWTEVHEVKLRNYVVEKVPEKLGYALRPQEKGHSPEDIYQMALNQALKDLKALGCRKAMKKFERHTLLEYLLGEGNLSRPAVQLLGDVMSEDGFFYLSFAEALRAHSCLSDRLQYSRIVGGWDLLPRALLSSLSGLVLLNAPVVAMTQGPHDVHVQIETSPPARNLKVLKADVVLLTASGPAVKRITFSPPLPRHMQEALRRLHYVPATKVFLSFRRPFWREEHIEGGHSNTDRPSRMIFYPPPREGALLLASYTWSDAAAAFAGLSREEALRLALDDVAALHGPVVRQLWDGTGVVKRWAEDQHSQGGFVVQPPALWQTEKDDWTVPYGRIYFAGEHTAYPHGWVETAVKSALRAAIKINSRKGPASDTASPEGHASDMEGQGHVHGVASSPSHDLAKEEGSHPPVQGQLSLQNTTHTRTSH

| SMILES | EC50 |
| --- | --- |
| O=c1[nH]c2ccccc2cc1Cc1cnc(N2CCCC2)s1 [Example 139, 3-((2-(pyrrolidin-1-yl)thiazol-5-yl)methyl)quinolin-2(1H)-one] | 0.0085 µM |
| COC(=O)Nc1ccc(Cc2cc3ccccc3[nH]c2=O)cc1 [Example 119, methyl (4-((2-oxo-1,2-dihydroquinolin-3-yl)methyl)phenyl)carbamate] | 0.016 µM |
| O=c1[nH]c2ccccc2cc1Cc1nnc(-c2cc(Cl)ccc2Cl)o1 [Example 11, 3-((5-(2,5-dichlorophenyl)-1,3,4-oxadiazol-2-yl)methyl)quinolin-2(1H)-one] | 0.0022 µM |
| O=c1[nH]c2ccccc2cc1Cc1nnc(-c2c[nH]c(C3CC3)n2)o1 [Example 18, 3-((5-(2-cyclopropyl-1H-imidazol-4-yl)-1,3,4-oxadiazol-2-yl)methyl)quinolin-2(1H)-one] | 0.0234 µM |
| O=c1[nH]c2ccccc2cc1Cc1cc(-c2ccccc2)no1 [Example 140, 3-((3-phenylisoxazol-5-yl)methyl)quinolin-2(1H)-one] | 0.0234 µM |
| CC1(O)CN(C(=O)c2ccc(Cc3cc4ccccc4[nH]c3=O)cc2)C1 [compound 2, 3-(4-(3-hydroxy-3-methylazetidine-1-carbonyl)benzyl)-quinolin-2(1H)-one] | 0.0348 µM |
| Cc1onc(-c2nnc(Cc3cc4ccccc4[nH]c3=O)o2)c1C [Example 14, 3-((5-(4,5-dimethylisoxazol-3-yl)-1,3,4-oxadiazol-2-yl)methyl)quinolin-2(1H)-one] | 0.15 µM |
| O=c1[nH]c2cccnc2cc1Cc1cccc(OC(F)(F)F)c1 [Example 105, 3-(3-(trifluoromethoxy)benzyl)-1,5-naphthyridin-2(1H)-one] | 0.619 µM |
| O=c1[nH]c2ccccc2cc1Cc1ccc(OC2CCOCC2)nc1 [Example 85, 3-((6-((tetrahydro-2H-pyran-4-yl)oxy)pyridin-3-yl)methyl)quinolin-2(1H)-one] | 0.0087 µM |
| N#CC1(c2ccc(Cc3cc4ccccc4[nH]c3=O)cc2)CC1 [Example 98, 1-(4-((2-oxo-1,2-dihydroquinolin-3-yl)methyl)phenyl)cyclopropane-1-carbonitrile] | 0.001 µM |
| NS(=O)(=O)c1ccc(Cc2cc3ccccc3[nH]c2=O)cc1Cl [Example 70, 2-chloro-4-((2-oxo-1,2-dihydroquinolin-3-yl)methyl)benzenesulfonamide] | 0.0089 µM |
| CC(C)(C#N)c1ccc(Cc2cc3ccccc3[nH]c2=O)cc1 [Example 97, 2-methyl-2-(4-((2-oxo-1,2-dihydroquinolin-3-yl)methyl)phenyl)propanenitrile] | 0.0014 µM |
| CS(=O)(=O)Nc1ccc(Cc2cc3ccccc3[nH]c2=O)cn1 [Example 48, N-(5-((2-oxo-1,2-dihydroquinolin-3-yl)methyl)pyridin-2-yl)methanesulfonamide] | 0.0214 µM |
| O=c1[nH]c2ccccc2cc1Cc1nnc(Cc2cnccn2)o1 [Example 31, 3-((5-(pyrazin-2-ylmethyl)-1,3,4-oxadiazol-2-yl)methyl)quinolin-2(1H)-one] | 0.172 µM |
| N#CC1(c2cccc(Cc3cc4cnccc4[nH]c3=O)c2)CC1 [Example 116, 1-(3-((2-oxo-1,2-dihydro-1,6-naphthyridin-3-yl)methyl)phenyl)cyclopropane-1-carbonitrile] | 0.0017 µM |
| CS(=N)(=O)Cc1ccc(Cc2cc3ccccc3[nH]c2=O)cc1 (single isomer, unassigned) [Example 187, 3-(4-(((S or R)-methylsulfonimidoyl)methyl)benzyl)quinolin-2(1H)-one] | 0.0286 µM |
| O=C1NCCc2cc(Cc3cc4ccccc4[nH]c3=O)ccc21 [Example 78, 3-((1-oxo-1,2,3,4-tetrahydroisoquinolin-6-yl)methyl)quinolin-2(1H)-one] | 0.0107 µM |
| O=C1NCCc2ccc(Cc3cc4ccccc4[nH]c3=O)cc21 [Example 77] | 0.0047 µM |
| CC(C)(O)c1ccc(Cc2cc3ccccc3[nH]c2=O)cc1 [Example 160, 3-(4-(2-Hydroxypropan-2-yl)benzyl)quinolin-2(1H)-one] | 0.0063 µM |
| O=C1NCc2cc(F)c(Cc3cc4ccccc4[nH]c3=O)cc21 [Example 87, 3-((6-fluoro-3-ixoisoindolin-5-yl)methyl)quinolin-2(1H)-one] | 0.0042 µM |

| SMILES | EC50 |
| --- | --- |
| O=c1[nH]c2ccccc2cc1Cc1nnc(C2CC3(CCC3)C2)o1 [Example 21, 3-((5-(spiro[3.3]heptan-2-yl)-1,3,4-oxadiazol-2-yl)methyl)quinolin-2(1H)-one] | 0.177 µM |
| CS(=N)(=O)Cc1ccc(Cc2cc3ccccc3[nH]c2=O)cc1 (single isomer, unassigned) [Example 186, 3-(4-(((R or S)-methylsulfonimidoyl)methyl)benzyl)quinolin-2(1H)-one] | 0.0282 µM |
| NS(=O)(=O)c1cccc(Cc2cc3ccccc3[nH]c2=O)c1 [Example 141, 3-((2-oxo-1,2-dihydroquinolin-3-yl)methyl)benzenesulfonamide] | 0.0202 µM |
| CN1C(=O)COc2ccc(Cc3cc4ccccc4[nH]c3=O)cc21 [Example 169, 4-Methyl-6-((2-oxo-1,2-dihydroquinolin-3-yl)methyl)-2H-benzo[b][1,4]oxazin-3(4H)-one] | 0.0023 µM |
| O=c1[nH]c2ccccc2cc1Cc1ccc2scnc2c1 [Example 156, 3-(benzo[d]thiazol-5-ylmethyl)quinolin-2(1H)-one] | 0.0014 µM |
| CCS(=O)(=O)Nc1ccc(Cc2cc3ccccc3[nH]c2=O)cn1 [Example 47, N-(5-((2-oxo-1,2-dihydroquinolin-3-yl)methyl)pyridin-2-yl)ethanesulfonamide] | 0.0108 µM |
| CS(=O)(=O)NCc1ccc(Cc2cc3ccccc3[nH]c2=O)cc1 [Example 73, N-(4-((2-oxo-1,2-dihydroquinolin-3-yl)methyl)benzyl)methanesulfonamide] | 0.0064 µM |
| N#Cc1ccc(F)c(-c2nnc(Cc3cc4ccccc4[nH]c3=O)o2)c1 [Example 33, 4-fluoro-3-(5-((2-oxo-1,2-dihydroquinolin-3-yl)methyl)-1,3,4-oxadiazol-2-yl)benzonitrile] | 0.0653 µM |
| Cc1cc(Cc2cc3ccccc3[nH]c2=O)ccc1CNS(C)(=O)=O [Example 165, N-(2-methyl-4-((2-oxo-1,2-dihydroquinolin-3-yl)methyl)benzyl)methanesulfonamide] | 0.0062 µM |
| CC(C)(O)c1ccc(Cc2cc3cnccc3[nH]c2=O)cc1Cl [Example 184, 3-(3-Chloro-4-(2-hydroxypropan-2-yl)benzyl)-1,6-naphthyridin-2(1H)-one] | 0.0153 µM |
| C[C@]1(c2ccc(Cc3cc4ccccc4[nH]c3=O)cc2)CCC(=O)N1 (single isomer, unassigned) [Example 183A, (S or R)-3-(4-(2-methyl-5-oxopyrrolidin-2-yl)benzyl)quinolin-2(1H)-one] | 0.0157 µM |
| Cc1c(Cc2ccccc2)c(=O)[nH]c2ccccc12 [Example 164, 3-Benzyl-4-methylquinolin-2(1H)-one] | 10 µM |
| CC(O)C(C#N)c1ccc(Cc2cc3ccccc3[nH]c2=O)cc1 (single isomer, unassigned) [Example 102C, 3-hydroxy-2-(4-((2-oxo-1,2-dihydroquinolin-3-yl)methyl)phenyl)butanenitrile] | 0.0118 µM |
| O=C1NC(=O)c2cc(Cc3cc4ccccc4[nH]c3=O)ccc21 [Example 185, 5-((2-oxo-1,2-dihydroquinolin-3-yl)methyl)isoindoline-1,3-dione] | 0.0091 µM |
| C[C@H]1Oc2ccc(Cc3cc4ccccc4[nH]c3=O)cc2NC1=O (single isomer, unassigned) [Example 142A, 2-methyl-6-((2-oxo-1,2-dihydroquinolin-3-yl)methyl)-2H-benzo[b][1,4]oxazin-3(4H)-one] | 0.0044 µM |
| N#Cc1cn[nH]c1-c1nnc(Cc2cc3ccccc3[nH]c2=O)o1 [Example 41, 5-(5-((2-oxo-1,2-dihydroquinolin-3-yl)methyl)-1,3,4-oxadiazol-2-yl)-1H-pyrazole-4-carbonitrile] | 0.0134 µM |
| O=C(c1ccc(Cc2cc3ccccc3[nH]c2=O)cc1)N1CC(O)C1 [Example 1, 3-(4-(3-hydroxyazetidine-1-carbonyl)benzyl)quinolin-2(1H)-one] | 0.0155 µM |
| CC1(O)CC(c2ccc(Cc3cc4ccccc4[nH]c3=O)cc2)C1 (stereo not drawn) [Example 161, 3-(4-(3-hydroxy-3-methylcyclobutyl)benzyl)quinolin-2(1H)-one] | 0.0032 µM |
| O=C1CC(Cc2nnc(Cc3cc4ccccc4[nH]c3=O)o2)CC(=O)N1 [Example 37, 4-((5-((2-oxo-1,2-dihydroquinolin-3-yl)methyl)-1,3,4-oxadiazol-2-yl)methyl)piperidine-2,6-dione] | 0.138 µM |

From patent US20240287022A1 (Merck Sharp & Dohme LLC, priority 2021, published 2024)
